Common to all, as to assay: relative viability (nuclei count vs DMSO), 5 days (fraction); higher = more cells survive
Compound in the assay “CX-5461 + Crizotinib”: Cc1cnc(CNC(=O)c2c(=O)c3ccc(N4CCCN(C)CC4)nc3n3c2sc2ccccc23)cn1 [CX-5461] + C[C@@H](Oc1cc(-c2cnn(C3CCNCC3)c2)cnc1N)c1c(Cl)ccc(F)c1Cl [Crizotinib] (partner 1 µM)
The procedure, abridged: (§1)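 Cells from lung cancer lines were seeded into 1536-well plates and, one day later, dosed by pin tool. Treatments were either a single drug or a fixed dose of an anchor drug with five library-drug doses (not always all listed) in √10 steps. After 5 days, nuclei were stained in a one-step fixation (final 0.05% Triton X-100, 1% formaldehyde, 1 ug/ml Hoechst) and counted on 4× images, and relative viability is the treated-to-vehicle nuclei ratio, as the median of duplicate plates.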

Compound in the assay “CX-5461 + Pemetrexed”: Cc1cnc(CNC(=O)c2c(=O)c3ccc(N4CCCN(C)CC4)nc3n3c2sc2ccccc23)cn1 [CX-5461] + Nc1nc2[nH]cc(CCc3ccc(C(=O)N[C@@H](CCC(=O)O)C(=O)O)cc3)c2c(=O)[nH]1 [Pemetrexed] (partner 0.2 µM)
The procedure, abridged: as §1

Compound in the assay “IMD-0354 + Alpelisib”: O=C(Nc1cc(C(F)(F)F)cc(C(F)(F)F)c1)c1cc(Cl)ccc1O [IMD-0354] + Cc1nc(NC(=O)N2CCC[C@H]2C(N)=O)sc1-c1ccnc(C(C)(C)C(F)(F)F)c1 [Alpelisib] (partner 2 µM)
Put shortly:
as §1

Compound in the assay “IMD-0354 + Vorinostat”: O=C(Nc1cc(C(F)(F)F)cc(C(F)(F)F)c1)c1cc(Cl)ccc1O [IMD-0354] + O=C(CCCCCCC(=O)Nc1ccccc1)NO [Vorinostat] (partner 1 µM)
Put shortly:
as §1

As to UMC-11, the relative viability with CX-5461 + Crizotinib (first compound 0.01 µM) was found to be 0.63; in the assay with CX-5461 + Crizotinib (first compound 0.03162 µM) it was 0.655; with CX-5461 + Crizotinib (first compound 0.1 µM), 0.694; with CX-5461 + Crizotinib (first compound 0.3162 µM) it was 0.607; with CX-5461 + Crizotinib (first compound 1 µM), 0.153; with CX-5461 + Pemetrexed (first compound 0.01 µM), 0.825. The relative viability in the assay with CX-5461 + Pemetrexed (first compound 0.03162 µM) stood at 0.871; with CX-5461 + Pemetrexed (first compound 0.1 µM) it was 0.722; with CX-5461 + Pemetrexed (first compound 0.3162 µM), 0.763; in the assay with CX-5461 + Pemetrexed (first compound 1 µM), 0.408; in the assay with IMD-0354 + Alpelisib (first compound 0.04 µM), 0.945; in the assay with IMD-0354 + Alpelisib (first compound 0.1265 µM), 0.973. The relative viability is 0.598 with IMD-0354 + Alpelisib (first compound 0.4 µM); 0.235 with IMD-0354 + Alpelisib (first compound 1.265 µM); 0.281 with IMD-0354 + Alpelisib (first compound 4 µM); 0.39 with IMD-0354 + Vorinostat (first compound 0.04 µM); 0.407 with IMD-0354 + Vorinostat (first compound 0.1265 µM); 0.278 in the assay with IMD-0354 + Vorinostat (first compound 0.4 µM). Also, the figures for the relative viability in the assay with IMD-0354 + Vorinostat (first compound 1.265 µM) and in the assay with IMD-0354 + Vorinostat (first compound 4 µM) were 0.189 and 0.239, respectively.

The record behind these values is the supplement of paper PMC10307832.
